Read-outs that look alike come from different tables or passages of the source.
Tested on: HL-60 cells
Assay: Anti-proliferative effect on HL-60 cells (Coulter Counter enumeration)
Assay type: cell-based, human (patient)
Settings: for inhibition at 0.015 µM / inhibition at 0.045 µM / inhibition at 0.09 µM: Homo sapiens, read-out: percent reduction of cell numbers relative to control
Description: Cultures of HL-60 cells were established in the absence (control) or presence of various concentrations of the test compound. After a 4-day incubation period, the cultures were evaluated for proliferation of tumor cells, tumor cell viability, and cellular differentiation. Proliferation was assessed by directly enumerating the increased number of tumor cells resulting from incubation. Viability was determined by dye exclusion technique to learn whether any of the compounds were lethal to cultured HL-60 cells. Cellular differentiation was evaluated by determining the number of cells which had acquired the enzymes necessary to support a respiratory burst and the functional ability to phagocytose (bind/internalize) particulate material from their environment; both activities being characteristic of mature macrophages and granulocytes,
Tissure culture medium used in these experiments was RPM1-1640 supplemented prior to use to 10% v/v with fetal bovine serum (heat inactivated at 56° for 30 minutes), to 130 units per ml with penicillin and 130 μg per ml with streptomycin, and to an additional 1.6 millimolar with L-glutamine.
Experimental compounds were dissolved in sufficient ethanol to yield stock solutions of 1×10^-2 molar. Reduced lighting was employed when working with compounds and stock solutions were stored in the dark at -20° in an argon atmosphere. Compounds were diluted with tissue culture medium and added to flasks containing HL-60 cells to achieve the final concentrations described in each experiment.
The promyelocytic (HL-60) tumor cell line was derived from a patient with acute promyelocytic leukemia. HL-60 cells were maintained in liquid culture by serial weekly passage in tissue culture medium. In any experiment, three replicate flasks were incubated without compound (control) or in the presence of varying concentrations of compound. […]
Quantitation of proliferation was done by enumerating the number of HL-60 cells in each individual flasks (3 flasks per experimental point) using a model ZBI Coulter Counter. Results are shown as the number of cells per ml of tissue culture medium expressed as the mean±standard deviation and as percent reduction of cell number calculated according to the formula: [formula] Experimental cultures with the same or slightly greater cell numbers than control cultures are reported as zero percent reduction.

Structure (SMILES): C=C(C)[C@H](O)CC[C@@H](C)[C@H]1CC[C@H]2/C(=C/C=C3/C[C@@H](O)C[C@H](O)C3=C)CCC[C@]12C [25,26-dehydro-1α,24R-dihydroxycholecalciferol]
- inhibition of proliferation of HL-60 cells: inhibited by 25,26-dehydro-1α,24R-dihydroxycholecalciferol in a dose-dependent fashion
- HL-60 Cells per ml (15 × 10^-9 molar (first line of that concentration), day 3): 12.0 ± 0.2 cells per ml (× 10^-4)
- HL-60 Cells per ml (15 × 10^-9 molar (first line of that concentration), day 4): 24.1 ± 1.0 cells per ml (× 10^-4)
- HL-60 Cells per ml (15 × 10^-9 molar (first line of that concentration), day 6): 113.0 ± 1.4 cells per ml (× 10^-4)
- HL-60 Cells per ml (15 × 10^-9 molar (second line), day 3): 12.0 ± 0.5 cells per ml (× 10^-4)
- HL-60 Cells per ml (15 × 10^-9 molar (second line), day 4): 22.0 ± 0.4 cells per ml (× 10^-4)
- HL-60 Cells per ml (15 × 10^-9 molar (second line), day 6): 71.4 ± 1.3 cells per ml (× 10^-4)
- HL-60 Cells per ml (45 × 10^-9 molar, day 3): 12.3 ± 0.2 cells per ml (× 10^-4)
- HL-60 Cells per ml (45 × 10^-9 molar, day 4): 19.0 ± 0.8 cells per ml (× 10^-4)
- HL-60 Cells per ml (45 × 10^-9 molar, day 6): 31.4 ± 0.5 cells per ml (× 10^-4)
- HL-60 Cells per ml (90 × 10^-9 molar, day 3): 11.8 ± 0.1 cells per ml (× 10^-4)
- HL-60 Cells per ml (90 × 10^-9 molar, day 4): 15.4 ± 0.9 cells per ml (× 10^-4)
- HL-60 Cells per ml (90 × 10^-9 molar, day 6): 21.4 ± 1.1 cells per ml (× 10^-4)
- inhibition at 0.015 µM (HL-60, 72 h, 15 × 10^-9 molar (first line of that concentration), day 3): 0%
- inhibition at 0.015 µM (HL-60, 72 h, 15 × 10^-9 molar (second line), day 3): 0%
- inhibition at 0.045 µM (HL-60, 72 h, 45 × 10^-9 molar, day 3): 0%
- inhibition at 0.09 µM (HL-60, 72 h, 90 × 10^-9 molar, day 3): 0%
- inhibition at 0.015 µM (HL-60, 96 h, 15 × 10^-9 molar (first line of that concentration), day 4): 9%
- inhibition at 0.015 µM (HL-60, 96 h, 15 × 10^-9 molar (second line), day 4): 17%
- inhibition at 0.045 µM (HL-60, 96 h, 45 × 10^-9 molar, day 4): 28%
- inhibition at 0.09 µM (HL-60, 96 h, 90 × 10^-9 molar, day 4): 42%
- inhibition at 0.015 µM (HL-60, 144 h, 15 × 10^-9 molar (first line of that concentration), day 6): 11%
- inhibition at 0.015 µM (HL-60, 144 h, 15 × 10^-9 molar (second line), day 6): 44%
- inhibition at 0.045 µM (HL-60, 144 h, 45 × 10^-9 molar, day 6): 75%
- inhibition at 0.09 µM (HL-60, 144 h, 90 × 10^-9 molar, day 6): 83%
- inhibition of proliferation detectable by cell enumeration as early as (day of incubation): 4 days

From patent US4594340A, “25,26-dehydro-1α,24R-dihydroxycholecalciferol and 25,26-dehydro-1α,24S-dihydroxycholecalciferol and the epimeric mixture” (Hoffmann-La Roche Inc., priority 1984, dated 1986)
